According to ChEMBL document CHEMBL1130154, “Molecular modeling and 3D-QSAR studies on the interaction mechanism of tripeptidyl thrombin inhibitors with human alpha-thrombin” (J Med Chem, 1997):
Square brackets hold non-standard residues; d marks the D form. Peptide text beside a SMILES is read from it. Tic = O=C(O)[C@@H]1Cc2ccccc2CN1

Each compound was assayed against Prothrombin (Homo sapiens, UniProt P00734) (assay: In vitro inhibitory activity against human Prothrombin).

Compound | IC50
CC[C@@H](C(=O)N1CCC[C@H]1C(=O)N[C@H](C=O)CCCNC(=N)N)c1ccccc1 | 130 nM
N=C(N)NCCC[C@@H](C=O)NC(=O)[C@@H]1CCCN1C(=O)[C@H]1NCCc2ccccc21 | 19 nM
CO[C@@H](C(=O)N1CCC[C@H]1C(=O)N[C@H](C=O)CCCN=C(N)N)c1ccccc1 | 250 nM
C[C@@H](C(=O)N1CCC[C@H]1C(=O)N[C@H](C=O)CCCNC(=N)N)c1ccccc1 | 94 nM
CC(C)(C)OC(=O)N[C@@H](C(=O)N1CCC[C@H]1C(=O)N[C@H](C=O)CCCNC(=N)N)c1ccc2ccccc2c1 | 18 nM
CC(C)(C)OC(=O)N[C@@H](C(=O)N1CCC[C@H]1C(=O)N[C@H](C=O)CCCNC(=N)N)c1cccc2ccccc12 | 23 nM
C[C@H](C(=O)N1CCC[C@H]1C(=O)N[C@H](C=O)CCCNC(=N)N)c1ccccc1 | 5100 nM
CC(C)(C)OC(=O)N[C@@H](C(=O)N1CCC[C@H]1C(=O)N[C@H](C=O)CCCN=C(N)N)c1cccc(C(F)(F)F)c1 | 27 nM
N=C(N)NCCC[C@@H](C=O)NC(=O)[C@@H]1CCCN1C(=O)[C@@H]1Cc2ccccc2CN1 (H-[Tic]-Pro-Arg-aldehyde) | 25 nM
CC(C)(C)OC(=O)NC(C(=O)N1CCC[C@H]1C(=O)N[C@H](C=O)CCCN=C(N)N)c1cccc2ccccc12 (stereo in doubt; 12) | 55 nM
CC(C)(C)OC(=O)NC(C(=O)N1CCC[C@H]1C(=O)N[C@H](C=O)CCCN=C(N)N)c1cccc2ccccc12 (stereo in doubt; 13) | 85 nM
